From US20250195672A1, “DENDRIMER COMPOSITIONS FOR TARGETED DELIVERY OF THERAPEUTICS TO NEURONS” (priority 2022, published 2025)
“Also recorded” adds a separate entry of the source.

Test system: YFP-expressing cortical neurons
Assay: GD2-Cy5 uptake in ex vivo cortical brain sections: neuronal activity and glucose transporter blockade
Format: cell-based, mouse
Details: 30 minutes pre-treatment in Mg2+ free ACSF: cytochalasin B 5 μM, glutor 10 μM, phlorizin 10 μM, GD2-Cy5 10 μg/ml
Procedure: FIG. 9A is scheme of the experiment in which 300 μm cortical brain sections were pre-treated for 30 minutes with control ACSF (Mg2+ free, increases neuronal firing) or ACSF containing Mg2+/NMDG (suppressed neuronal activity) or control ACSF with either cytochalasin B (5 μM) or glutor ([…]). After pre-treatment, brain sections were incubated with GD2-Cy5 (10 μg/ml) for 30 minutes followed by 10% formalin fixation and confocal imaging.
300 μm cortical brain sections were pre-treated for 30 minutes with Mg2+ free artificial cerebrospinal fluid (ACSF) (increases neuronal firing) or ACSF containing Mg2+/NMDG (suppressed neuronal activity) or Mg2+ free ACSF with cytochalasin B (5 μM) or glutor (10 μM) or phlorizin (10 μM). After pre-treatment, brain sections were incubated with GD2-Cy5 (10 μg/ml) for 30 minutes followed by formalin fixation and confocal imaging. Mean fluorescence intensities for GD-Cy5 were evaluated in YFP-expressing cortical neurons. Confocal images of fixed sections showing DAPI (nucleus), YFP (neurons) and GD2-Cy5 with different treatments were taken and analyzed.
CP rabbit kits or Thy1-YFP mice were deeply anesthetized with isoflurane and decapitated. Brains were removed and transferred to oxygenated (95% O2/5% CO2), ice-cold N-Methyl-D-glucamin (NMDG)-based buffer (Buffer1, in mM: 92 NMDG, 2.5 KCl, 10 MgSO4, 0.5 CaCl2, 1.2 NaH2PO4, 30 NaHCO3, 25 glucose, 20 HEPES, 5 sodium ascorbate, 3 sodium pyruvate, 2 thiourea; pH 7.4). Coronal brain slices ([…]) were then obtained using a vibratome (VT1200, Leica). Slices were first incubated in the NMDG-based solution at 34° C. for 10 minutes, then transferred and maintained in the same solution for an hour at room temperature before starting subsequent experiment. Dendrimer-Cy5 was added in 5 ml of Buffer2 (in mM: 125 NaCl, 2.5 KCl, 1 MgCl2, 2 CaCl2, 1.25 NaH2PO4, 26 NaHCO3, 20 glucose; pH 7.4) containing brain slices and incubated for 30 min while oxygenation at room temperature. […]

Row | SMILES | Effect of transporter blocker pre-treatment on GD2 uptake by neurons
1 | O=C(CCc1ccc(O)cc1)c1c(O)cc(O)cc1O[C@@H]1O[C@H](CO)[C@@H](O)[C@H](O)[C@H]1O [Phlorizin] | diminished GD2 uptake
2 | C=C1[C@@H](C)[C@H]2[C@H](Cc3ccccc3)NC(=O)[C@]23OC(=O)/C=C/[C@H](O)CCC[C@@H](C)C/C=C/[C@H]3[C@@H]1O [cytochalasin B] | diminished GD2 uptake; also recorded: significantly decreased
3 | C[C@@]1(C(=O)NCc2cccnc2)Cn2nc(-c3ccccc3)cc2C(=O)N1Cc1ccc(N2CCOCC2)cc1 [glutor] | diminished GD2 uptake; also recorded: significantly decreased
